Experimental findings from US20240382469A1, “COMBINATION THERAPY WITH DEUTERATED IMIDAZOQUINOLINES” (BIRDIE BIOPHARMACEUTICALS, INC., priority 2021, published 2024) are described below.

Assay [1] concerns TC-1 cells. The assay is described as follows: In vivo efficacy of compound 1 in combination with various therapeutic antibodies in TC-1 animal model. Also on record: species or system C57BL/6 mice. The conditions noted are these: days 9, 12, 15, 18 and 21, p<0.05, FIG. 3. On the procedure:
Female C57BL/6 mice (5 to 6-week-old) were randomly divided into 7 groups (n=5 per group), including (1) placebo (PBS, i.p.); (2) compound 1 (1.6 μg; s.c.); (3) compound 1 and anti-CD137 antibody; (4) compound 1 and anti-TIGIT antibody; (5) compound 1 and anti-OX40 antibody; (6) compound 1 and anti-LAG3 antibody; (7) compound 1 and anti-CD47 antibody.
To challenge, each mouse was subcutaneously injected with 1×10^6 TC-1 cells in a volume of 0.1 mL into the left flank at day 0. Then, mice in each group received totally five doses of placebo, compound 1 or indicated combination therapy on days 9, 12, 15, 18 and 21. In each dose of combination therapy, 1.6 μg of compound 1 was given subcutaneously, and 200 μg of therapeutic antibody (anti-CD137, anti-TIGIT, anti-OX40, anti-LAG3 or anti-CD47 antibody) was given intraperitoneally. All mice were sacrificed on day 34. By using the same method as described in example 1, the tumor size was determined and the significance of all comparisons was calculated.

For assay [2], the system named is CT26 tumor cells. In words: In vivo efficacy of deuterated compounds in combination with an anti-PD-1 antibody in CT26 animal model. Also on record: species or system BALB/c mice. Particulars: for tumor size as compared to placebo group and to anti-PD-1 antibody alone group / tumor size over the experimental period: 1.6 μg compound s.c. in combination with 50 μg anti-PD-1 antibody i.p., FIG. 1; for tumor size as compared to placebo group and to anti-PD-1 antibody alone group: days 6, 9 and 12, p<0.05 for both comparisons; for tumor size over the experimental period: followed to day 28. On the procedure: Female BALB/c mice (5 to 6-week-old) were randomly divided into 5 groups (n=5 per group), including (1) placebo (PBS; s.c.); (2) anti-PD-1 antibody (50 μg; i.p.); (3) compound 1 and anti-PD-1 antibody; (4) compound 2 and anti-PD-1 antibody; (5) compound 3 and anti-PD-1 antibody.
To challenge mice, CT26 tumor cells (1×10^6 in 0.1 mL) were injected subcutaneously on day 0. Then, mice in each group received totally three doses of placebo, anti-PD-1 antibody or indicated combination therapy on days 6, 9 and 12. In each dose of combination therapy, 1.6 μg of TLR7/8 agonist (compound 1, 2 or 3) was given subcutaneously, and 50 μg of anti-PD-1 antibody (mAb) was given intraperitoneally. All mice were sacrificed on day 28. The tumor size was determined twice a week by multiplication of caliper measurements based on the modified ellipsoidal formula: Tumor volume=½ (length × width^2). Mice with tumor length over 2 cm were considered dead and mice without measurable or palpable tumor masses were considered tumor-free. The significance of all comparisons was calculated by using t-test, and results considered significant when p<0.05.

For assay [3], the system named is CT26 tumor cells. In words: In vivo efficacy of compound 1 or proto-resiquimod in combination with an anti-PD-1 antibody in CT26 animal model. Also on record: species or system BALB/c mice. On the procedure:
Female BALB/c mice (5 to 6-week-old) were randomly divided into 4 groups (n=5 per group), including (1) placebo (PBS; i.p.); (2) anti-PD-1 antibody (50 μg; i.p.); (3) compound 1 (1.6 μg; s.c.) and anti-PD-1 antibody (50 μg; i.p.); (4) proto-resiquimod (1.6 μg; s.c.) and anti-PD-1 antibody (50 μg; i.p.).
To challenge mice, CT26 tumor cells (1×10^6 in 0.1 mL) were injected subcutaneously on day 0. Then, mice in each group received totally three doses of placebo, anti-PD-1 antibody or indicated combination therapy. In placebo group, mice received PBS (s.c.) on days 7, 14 and 21. In anti-PD-1 antibody alone group, mice received 50 μg of anti-PD-1 antibody (i.p.) on days 7, 10 and 14. In each combination therapy group, mice received 1.6 μg of TLR7/8 agonist (compound 1 or proto-resiquimod) (s.c.) on days 7, 14 and 21, and 50 μg of anti-PD-1 antibody (i.p.) on days 7, 10 and 14. All mice were sacrificed on day 28. By using the same method as described in example 1, the tumor size was determined and the significance of all comparisons was calculated.

On to `[2H]C([2H])([2H])C([2H])([2H])OCc1nc2c(N)nc3ccccc3c2n1CC(C)(C)O` [Compound 1], for which the “tumor size as compared to placebo group or compound 1 alone group” value in assay [1] (1.6 μg compound 1 s.c. in combination with 200 μg anti-CD47 antibody i.p.), in assay [1] (1.6 μg compound 1 s.c. in combination with 200 μg anti-CD137 antibody i.p.), in assay [1] (1.6 μg compound 1 s.c. in combination with 200 μg anti-LAG3 antibody i.p.), in assay [1] (1.6 μg compound 1 s.c. in combination with 200 μg anti-OX40 antibody i.p.) and in assay [1] (1.6 μg compound 1 s.c. in combination with 200 μg anti-TIGIT antibody i.p.) was “significantly suppress tumor size” each time. The “tumor size as compared to placebo group and to anti-PD-1 antibody alone group” value in assay [2] is given as “significantly reduce tumor size”. Moreover, in assay [2], the “tumor size over the experimental period” value is recorded as “almost completely suppressed tumor size”. Also, the “tumor inhibitory effect compared with the other deuterated compounds” value in assay [2] (in combination with anti-PD-1 antibody, p<0.05 for each comparison) was “outstanding and significant tumor inhibitory effect than compounds 2 or 3”. Also, the tumor size result in assay [3] (1.6 μg TLR7/8 agonist s.c. days 7, 14 and 21 in combination with 50 μg anti-PD-1 antibody i.p. days 7, 10 and 14, FIG. 2) is recorded as “potently inhibit tumor size”. Further, the “tumor inhibitory effect compared with proto-resiquimod” value in assay [3] (in combination with anti-PD-1 antibody, p<0.05) is recorded as “more significant tumor inhibitory effect than proto-resiquimod”.

On to `[2H]C([2H])([2H])C(O)(C([2H])([2H])[2H])C([2H])([2H])n1c(COCC)nc2c(N)nc3ccccc3c21` [Compound 2], for which, in assay [2], the “tumor size as compared to placebo group and to anti-PD-1 antibody alone group” value was “significantly reduce tumor size”; the “tumor size over the experimental period” value was “initially well controlled, however, slightly grew at the last week”.

`[2H]C([2H])([2H])C(O)(Cn1c(COCC)nc2c(N)nc3ccccc3c21)C([2H])([2H])[2H]` [Compound 3]: in assay [2], the “tumor size as compared to placebo group and to anti-PD-1 antibody alone group” value was “significantly reduce tumor size”; the “tumor size over the experimental period” value is “initially well controlled, however, slightly grew at the last week”.
